Results taken from EP2092932A2, “Processes to pre-treat hair with organic solvents” (The Procter and Gamble Company, priority 2006, dated 2008).

Experiment: Hair treatment protocol: solvent pre-treatment before oxidative dyeing, colour strength K/S measured by spectrophotometer
Settings: for K/.S vs. DI Water: switch soaked 5 minutes in neat solvent, then level 3 oxidative hair colorant (Nice n' Easy) 30 minutes at 30°C, dye uptake change vs. DI water

Row | Structure (SMILES) | K/.S vs. DI Water [%] | K/S vs. DI Water (Glycerine Content 10 % wt. in deionised water as pre-treatment composition) [%] | K/S vs. DI Water (Glycerine Content 25 % wt. in deionised water as pre-treatment composition) [%] | K/S vs. DI Water (Glycerine Content 50 % wt. in deionised water as pre-treatment composition) [%] | K/S vs. DI Water (Glycerine Content 70 % wt. in deionised water as pre-treatment composition) [%]
1 | OCCOCCO [Diethyleneglycol] | -50 | – | – | – | –
2 | OCC(O)CO [Glycerine] | -40 | -2 | -4 | -20 | -43
